The nature of data set [1]: Test 2: thermal analysis, stability against heat by differential scanning calorimeter. In kind it is physicochemical. The following applies: temperature rise rate 10° C./min. An excerpt:
The samples shown in Table 2 were examined for stability against heat with a differential scanning calorimeter (model DSC 3100, manufactured by MAC Science).

Data set [2] in a line: Test 4: dissolution test (Japanese Pharmacopoeia Method 2) in second fluid. In kind it is physicochemical. The following applies: second fluid of the Japanese Pharmacopoeia; dissolved cefditoren pivoxil determined at 272 nm. On the procedure: For each sample shown in Table 2, a dissolution test (see The Japanese Pharmacopoeia, Fourteenth Edition, Part I, General Tests “56. Dissolution test, Method 2”) was carried out in a second fluid specified in the Japanese Pharmacopoeia (a fluid prepared by adding 118 mL of a 0.2 mol/L sodium hydroxide reagent solution and water to 250 mL of a 0.2 mol/L potassium dihydogenphosphate reagent solution; the amount of the water being a sufficient amount to bring the total volume of the fluid to 1,000 mL). The fluid with the sample dissolved therein was sampled at fixed intervals of time and was filtered through a glass filter G-4 manufactured by TOYAMA SANGYO Co., Ltd., and the amount of dissolved cefditoren pivoxil was then quantitatively determined at a measuring wavelength of 272 nm with a spectrophotometer (UV-160, manufactured by Shimadzu Seisakusho Ltd.

With `CO/N=C(\C(=O)N[C@@H]1C(=O)N2C(C(=O)OCOC(=O)C(C)(C)C)=C(/C=C\c3scnc3C)CS[C@H]12)c1csc(N)n1` [amorphous cefditoren pivoxil, (−)-(6R,7R)-7-[(Z)-2-(2-aminothiazol-4-yl)-2-methoxyiminoacetamido]-3-[(Z)-2-(4-methylthiazol-5-yl)ethenyl]-8-oxo-5-thia-1-azabicyclo[4.2.0]oct-2-ene-2-carboxylic acid 2,2-dimethylpropionyloxymethyl ester], the “exothermic peak in DSC curve (transfer to a crystalline state)” value in data set [1] was “around 140 °C”.
In the case of `CO/N=C(\C(=O)N[C@@H]1C(=O)N2C(C(=O)OCOC(=O)C(C)(C)C)=C(/C=C\c3scnc3C)CS[C@H]12)c1csc(N)n1` [crystalline cefditoren pivoxil, (−)-(6R,7R)-7-[(Z)-2-(2-aminothiazol-4-yl)-2-methoxyiminoacetamido]-3-[(Z)-2-(4-methylthiazol-5-yl)ethenyl]-8-oxo-5-thia-1-azabicyclo[4.2.0]oct-2-ene-2-carboxylic acid 2,2-dimethylpropionyloxymethyl ester], the “dissolvability (dissolution curve of cefditoren pivoxil)” value in data set [2] is listed as “substantially no difference in dissolvability”.
